Results as given in patent US8834841B2, “Imaging agents” (priority 2005, dated 2014).

Assays:
[1] = test system: A549 Lung Tumor Cells Implanted SC in SCID Mice; test: tissue distribution, A549 tumor-bearing SCID mice; format: in vivo
Experimental: For the in vitro amino acid uptake studies, all cells can be grown to monolayer confluency in T-175 culture flasks [Corning, Corning, N.Y.] (approx. 1×10^8 cells/flask) in Dulbecco's Modified Eagle's Medium (DMEM) [Sigma, St. Louis, Mo.] in a humidified incubator (37° C., 5% CO2/95% air). Media are supplemented with 10% fetal calf serum [Hyclone, Logan, Utah], and antibiotics (10,000 U/ml penicillin and 10 mg/ml streptomycin) (Sigma, St. Louis, Mo.). For tissue culture passage, monolayer cells are detached by gentle trypsinization, resuspended in complete media, and split 1:10 into new T-flasks. Cultures are passaged weekly, and fed fresh media every 2 to 3 days. To initiate tumor growth in SCID mice, 1×10^6 cells are injected s.c. bilaterally into the flanks (inguinal region) of the recipient animals using a 1 ml syringe with a 27 gauge needle. Ex vivo experiments can be performed with animals containing tumors weighing between 500 mg and 1 g, as estimated by caliper measurement (tumor weight=(π/6)*abc, where a, b and c are the tumor length, width and height, respectively). The compounds of the invention are further evaluated for their tumor specificity and selectivity in tumor-bearing animal models. One can evaluate and compare the transport, accumulation and tissue distribution of each compound in these in vivo animal studies. Tissue distribution of the compounds is measured in SCID mice (average weight, 20-25 g) bearing human tumors as follows. The candidate radioligands (20 uCi in 0.4 ml 0.9% NaCl) are injected into the tail vein of tumor-bearing mice. […] Tissues (blood, heart, liver, lungs, kidneys, bone, thyroid, muscle, brain and tumor) are excised, rinsed in saline, and blotted dry. The tissues are weighed, placed into 12×75 mm glass vials, the radioactivity determined with a gamma counter, and the percent dose/gram calculated. Total activities of blood and muscle are calculated by assuming that they account for 7% and 40% of the total body mass, respectively.

A549 lung carcinoma = test: in vitro amino acid uptake, A549 cells; format: cell-based, human
From the text: The inventive compounds have been evaluated in vitro for tumor binding specificity (i.e. uptake cells) using a variety of tumor cell lines available in the art, along with reference compounds such as Me-AIB and BCH. Detailed description of these assays can be found in Martarello et al. (2002) Journal of Medicinal Chemistry, 45:2250-2259 and McConathy et al. (2003) Nuclear Medicine and Biology, 30:477-490. These, so called “amino acid uptake studies” are typically carried out with radiolabeled compounds in at least five phenotypically different human tumor cell lines (e.g. A549 lung carcinoma, MB468 breast carcinoma, DU145 prostate carcinoma, SKOV3 ovarian carcinoma, and U87 glial blastoma). These tumor cell lines can be grown either in vitro or in vivo with severe combined immunodeficiency (SCID) mice as a host. The fore-mentioned tumor cell lines are available at the Winship Cancer Institute of Emory University.
For the in vitro amino acid uptake studies, all cells can be grown to monolayer confluency in T-175 culture flasks [Corning, Corning, N.Y.] (approx. 1×10^8 cells/flask) in Dulbecco's Modified Eagle's Medium (DMEM) [Sigma, St. Louis, Mo.] in a humidified incubator (37° C., 5% CO2/95% air). Media are supplemented with 10% fetal calf serum [Hyclone, Logan, Utah], and antibiotics (10,000 U/ml penicillin and 10 mg/ml streptomycin) (Sigma, St. Louis, Mo.). For tissue culture passage, monolayer cells are detached by gentle trypsinization, resuspended in complete media, and split 1:10 into new T-flasks. […]
In the in vitro studies the uptake rate of each amino acid compound is measured in each tumor line, as well as the dominant transport mechanisms of each tumor cell line. After trypsinization, cells are resuspended in serum-free media, then counted on a hemocytometer, with viability assessed through Trypan blue staining. […] The vials are placed in a Cobra-II gamma counter (Packard, Meriden, Conn.), with the activity per cell number determined. […] Saline washes are performed as described above, and the filtered cells radioactivity determined on the gamma counter. […]

NC1(C(=O)O)CCC1[18F] [Anti-R,S 2-[^18F]FACBC, (R,S) anti-1-amino-2-[^18F]fluorocyclobutyl-1-carboxylic acid]
% Dose/g blood ([1]; 15 Minutes): 3.39 % Dose/g
% Dose/g bone ([1]; 15 Minutes): 2.06 % Dose/g
% Dose/g brain ([1]; 15 Minutes): 0.26 % Dose/g
% Dose/g heart ([1]; 15 Minutes): 2.70 % Dose/g
% Dose/g kidney ([1]; 15 Minutes): 10.11 % Dose/g
% Dose/g liver ([1]; 15 Minutes): 3.15 % Dose/g
% Dose/g lung ([1]; 15 Minutes): 4.23 % Dose/g
% Dose/g muscle ([1]; 15 Minutes): 1.38 % Dose/g
% Dose/g pancreas ([1]; 15 Minutes): 48.45 % Dose/g
% Dose/g spleen ([1]; 15 Minutes): 7.90 % Dose/g
% Dose/g tumor ([1]; 15 Minutes): 5.11 % Dose/g
% Dose/g blood ([1]; 30 Minutes): 2.42 % Dose/g
% Dose/g bone ([1]; 30 Minutes): 1.63 % Dose/g
% Dose/g brain ([1]; 30 Minutes): 0.25 % Dose/g
% Dose/g heart ([1]; 30 Minutes): 2.23 % Dose/g
% Dose/g kidney ([1]; 30 Minutes): 5.47 % Dose/g
% Dose/g liver ([1]; 30 Minutes): 2.70 % Dose/g
% Dose/g lung ([1]; 30 Minutes): 3.03 % Dose/g
% Dose/g muscle ([1]; 30 Minutes): 1.43 % Dose/g
% Dose/g pancreas ([1]; 30 Minutes): 44.17 % Dose/g
% Dose/g spleen ([1]; 30 Minutes): 5.02 % Dose/g
% Dose/g tumor ([1]; 30 Minutes): 4.28 % Dose/g
% Dose/g blood ([1]; 60 Minutes): 1.08 % Dose/g
% Dose/g bone ([1]; 60 Minutes): 1.01 % Dose/g
% Dose/g brain ([1]; 60 Minutes): 0.16 % Dose/g
% Dose/g heart ([1]; 60 Minutes): 1.41 % Dose/g
% Dose/g kidney ([1]; 60 Minutes): 2.24 % Dose/g
% Dose/g liver ([1]; 60 Minutes): 1.46 % Dose/g
% Dose/g lung ([1]; 60 Minutes): 1.40 % Dose/g
% Dose/g muscle ([1]; 60 Minutes): 0.90 % Dose/g
% Dose/g pancreas ([1]; 60 Minutes): 20.63 % Dose/g
% Dose/g spleen ([1]; 60 Minutes): 2.85 % Dose/g
% Dose/g tumor ([1]; 60 Minutes): 3.04 % Dose/g
% Dose/g blood ([1]; 120 Minutes): 0.40 % Dose/g
% Dose/g bone ([1]; 120 Minutes): 0.62 % Dose/g
% Dose/g brain ([1]; 120 Minutes): 0.14 % Dose/g
% Dose/g heart ([1]; 120 Minutes): 0.85 % Dose/g
% Dose/g kidney ([1]; 120 Minutes): 1.02 % Dose/g
% Dose/g liver ([1]; 120 Minutes): 0.58 % Dose/g
% Dose/g lung ([1]; 120 Minutes): 0.56 % Dose/g
% Dose/g muscle ([1]; 120 Minutes): 0.77 % Dose/g
% Dose/g pancreas ([1]; 120 Minutes): 9.80 % Dose/g
% Dose/g spleen ([1]; 120 Minutes): 1.48 % Dose/g
% Dose/g tumor ([1]; 120 Minutes): 2.30 % Dose/g
% Dose Uptake/0.5e6 Cells (A549 lung carcinoma; A549, No inhibitor): 8.89 +/− 0.36 % Dose Uptake/0.5e6 Cells
% Dose Uptake/0.5e6 Cells (A549 lung carcinoma; A549, inhibitor BCH (10 mM)): 3.99 +/− 0.39 % Dose Uptake/0.5e6 Cells
% Dose Uptake/0.5e6 Cells (A549 lung carcinoma; A549, inhibitor MeAlB (10 mM)): 6.93 +/− 0.20 % Dose Uptake/0.5e6 Cells
